Measurements reported in patent publication US20220356186A1, “PERK INHIBITING PYRROLOPYRIMIDINE COMPOUNDS” (HiberCell, Inc., priority 2019, published 2022).
Like-named read-outs stand apart in the source and are kept apart here.

Tests used:
[1] = test system: GFP-eIF2α in HEK293 cells; experiment: PERK cellular assay, TR-FRET in HEK293-EGFP-eIF2a cells after tunicamycin-induced ER stress; format: cell-based; details: HEK293-EGFP-eIF2a cells, tunicamycin 2 hours, read-out: Cellular eIF2α IC50
Procedure: Stable cell lines were created in HEK293 cells using lentiviral particles harboring an expression vector for GFP-eIF2α. Cells were selected using puromycin and enriched using fluorescence activated cell sorting against GFP. HEK293-EGFP-eIF2a cells were plated at 5000 cells/well in 384-well assay plates and incubated overnight at 37° C., 5% CO2. Inhibitor compounds were added to the wells by Echo acoustic dispensing and incubated for 30 minutes at 37° C., 5% CO2 prior to induction of ER stress by addition of tunicamycin to […] for 2 hours. Cells were lysed and TR-FRET was measured in an EnVision plate reader (PerkinElmer). FRET ratio data was normalized to signal from lysates treated with DMSO vehicle control and plotted as percent inhibition against 10-point; 3-fold dilution series of inhibitors. IC50 values were calculated using 4-parameter logistical fitting in XLFit.

[2] = molecular target: T1, EIF2AK3 (PERK) catalytic domain (amino acids 536-1116) (Homo sapiens, UniProt Q9NZJ5); experiment: PERK in vitro activity assay (isolated), TR-FRET kinase assay; format: biochemical; details: isolated PERK enzyme, 1.5 μM ATP; read-out: Biochemical IC50
T1 construct: EIF2AK3 (PERK) catalytic domain (amino acids 536-1116)
T1 sequence (Q9NZJ5 536-1116): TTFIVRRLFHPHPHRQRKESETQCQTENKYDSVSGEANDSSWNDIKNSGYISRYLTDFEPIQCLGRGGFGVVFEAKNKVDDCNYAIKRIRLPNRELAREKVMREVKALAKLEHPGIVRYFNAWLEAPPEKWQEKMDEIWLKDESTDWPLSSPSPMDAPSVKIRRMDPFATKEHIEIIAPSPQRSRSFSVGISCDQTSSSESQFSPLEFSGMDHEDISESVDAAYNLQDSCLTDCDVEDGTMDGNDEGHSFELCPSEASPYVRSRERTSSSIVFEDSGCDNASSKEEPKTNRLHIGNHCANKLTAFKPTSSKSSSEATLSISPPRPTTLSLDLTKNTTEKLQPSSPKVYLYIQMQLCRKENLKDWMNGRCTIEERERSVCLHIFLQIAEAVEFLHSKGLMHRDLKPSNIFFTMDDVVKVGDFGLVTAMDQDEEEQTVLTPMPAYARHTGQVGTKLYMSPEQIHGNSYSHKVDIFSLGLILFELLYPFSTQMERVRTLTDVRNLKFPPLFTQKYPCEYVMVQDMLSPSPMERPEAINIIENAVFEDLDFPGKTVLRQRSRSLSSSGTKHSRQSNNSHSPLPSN
Description: PERK In Vitro Activity Assay (Isolated):
In vitro Inhibition of PERK Enzyme Activity (isolated) Recombinant human EIF2AK2 (PKR) catalytic domain (amino acids 252-551), EIF2AK3 (PERK) catalytic domain (amino acids 536-1116), GFP-eIF2a substrate, and Terbium-labelled phospho-eIF2a antibody is obtained (Invitrogen, Carlsbad, Calif.).
Express and purify HIS-SUMO-GCN2 catalytic domain (amino acids 584-1019) from E. coli. Perform TR-FRET kinase assays in the absence or presence of inhibitors in a reaction buffer consisting of 50 mM HEPES, pH 7.5, 10 mM MgCb, 1.0 mM EGTA, and 0.01% Brij-35, and 100-200 nM GFP-eIF2a substrate. […] Add test compound, initiate the reaction by addition of enzyme, and incubate at room temperature for 45 minutes. Stop the reaction by addition of EDTA to a final concentration of 10 mM, add Terbium-labelled phospho-eIF2a antibody at a final concentration of 2 nM, and incubate for 90 minutes. Monitor the resulting fluorescence in an EnVison® Multilabel reader (PerkinElmer, Waltham, Mass.). Determine TR-FRET ratios and the resulting IC50 values using a 4-parameter nonlinear logistic equation as shown: Y=(A+((B−A)/(1+((C/x)[…])))) where, Y=% specific inhibition, A=Bottom of the curve, B=Top of the curve, C=absolute IC50 (concentration causing 50% inhibition), and D=hill slope.

Row | Compound | IC50 ([1]; Homo sapiens, HEK293, 2 h) [nM] | IC50 [2] [nM] | IC50 [1] [nM]
1 | Cc1cc(NC(=O)Cc2ccc(Cl)cc2)ccc1-c1cn(C)c2ncnc(N)c12 [Example 151, N-(4-(4-amino-7-methyl-7H-pyrrolo[2,3-d]pyrimidin-5-yl)-3-methylphenyl)-2-(4-chlorophenyl)acetamide] | 101 to 250 | 1 to 25 | –
2 | COc1cc(NC(=O)C(O)c2cccc(F)c2)ccc1-c1cn(C)c2nc(C)nc(N)c12 (single isomer, unassigned) [Example 105, N-(4-(4-amino-2,7-dimethyl-7H-pyrrolo[2,3-d]pyrimidin-5-yl)-3-methoxyphenyl)-2-(3-fluorophenyl)-2-hydroxyacetamide] | – | > 5000 | > 5000
3 | Cc1cc(NC(=O)Cc2cccc3ncccc23)ccc1-c1cn(C)c2ncnc(N)c12 [Example 154, N-(4-(4-amino-7-methyl-7H-pyrrolo[2,3-d]pyrimidin-5-yl)-3-methylphenyl)-2-(quinolin-5-yl)acetamide] | 501 to 1000 | 51 to 100 | –
4 | Cn1cc(-c2ccc(NC(=O)C(O)c3cccc(F)c3)cc2C(F)(F)F)c2c(N)ncnc21 (centres unmarked) [Example 16, N-(4-(4-amino-7-methyl-7H-pyrrolo[2,3-d]pyrimidin-5-yl)-3-(trifluoromethyl)phenyl)-2-(3-fluorophenyl)-2-hydroxyacetamide] | 101 to 250 | 1 to 25 | –
5 | Cc1nc(N)c2c(-c3ccc(NC(=O)C(O)c4cccc(C(F)(F)F)c4)nc3C)cn(C)c2n1 (centres unmarked) [Example 129, N-(5-(4-amino-2,7-dimethyl-7H-pyrrolo[2,3-d]pyrimidin-5-yl)-6-methylpyridin-2-yl)-2-hydroxy-2-(3-(trifluoromethyl)phenyl)acetamide] | – | 1 to 25 | 51 to 100
6 | CCc1cccc(C(O)C(=O)Nc2ccc(-c3cn(C)c4nc(C)nc(N)c34)c(C)c2)c1 (centres unmarked) [Example 43, N-(4-(4-amino-2,7-dimethyl-7H-pyrrolo[2,3-d]pyrimidin-5-yl)-3-methylphenyl)-2-(3-ethylphenyl)-2-hydroxyacetamide] | – | 1 to 25 | 1 to 25
7 | Cc1nc(N)c2c(-c3ccc(NC(=O)C(O)c4cccc(C(F)(F)F)c4)cc3Cl)cn(C)c2n1 (centres unmarked) [Example 102, N-(4-(4-amino-2,7-dimethyl-7H-pyrrolo[2,3-d]pyrimidin-5-yl)-3-chlorophenyl)-2-hydroxy-2-(3-(trifluoromethyl)phenyl)acetamide] | – | 101 to 250 | 101 to 250
8 | Cc1nc(N)c2c(-c3ccc(NC(=O)C(O)c4cc(F)cc(F)c4)c(F)c3F)cn(C)c2n1 (single isomer, unassigned) [Example 113, N-(4-(4-amino-2,7-dimethyl-7H-pyrrolo[2,3-d]pyrimidin-5-yl)-2,3-difluorophenyl)-2-(3,5-difluorophenyl)-2-hydroxyacetamide] | – | 1 to 25 | 1 to 25
9 | Cc1nc(N)c2c(-c3ccc(NC(=O)C(O)c4cccc(F)c4)c(F)c3F)cn(C)c2n1 (single isomer, unassigned) [Example 110, N-(4-(4-amino-2,7-dimethyl-7H-pyrrolo[2,3-d]pyrimidin-5-yl)-2,3-difluorophenyl)-2-(3-fluorophenyl)-2-hydroxyacetamide] | – | 1 to 25 | 1 to 25
10 | Cc1nc(N)c2c(-c3ccc(NC(=O)C(O)c4cccc(Cl)c4)cc3F)cn(C)c2n1 (centres unmarked) [Example 81, N-(4-(4-amino-2,7-dimethyl-7H-pyrrolo[2,3-d]pyrimidin-5-yl)-3-fluorophenyl)-2-(3-chlorophenyl)-2-hydroxyacetamide] | – | 51 to 100 | 101 to 250
11 | Cc1cc(NC(=O)C(O)c2ccccc2F)ccc1-c1cn(C)c2ncnc(N)c12 (centres unmarked) [Example 31, N-(4-(4-amino-7-methyl-7H-pyrrolo[2,3-d]pyrimidin-5-yl)-3-methylphenyl)-2-(2-fluorophenyl)-2-hydroxyacetamide] | 26 to 50 | 1 to 25 | –
12 | Cc1nc(N)c2c(-c3ccc(NC(=O)C(O)c4cccc(F)c4)cc3)cn(C)c2n1 (centres unmarked) [Example 23, N-(4-(4-amino-2,7-dimethyl-7H-pyrrolo[2,3-d]pyrimidin-5-yl)phenyl)-2-(3-fluorophenyl)-2-hydroxyacetamide] | 501 to 1000 | 1 to 25 | –
13 | Cc1cc(NC(=O)C(N)c2ccccc2)ccc1-c1cn(C)c2ncnc(N)c12 (centres unmarked) [Example 27, 2-amino-N-(4-(4-amino-7-methyl-7H-pyrrolo[2,3-d]pyrimidin-5-yl)-3-methylphenyl)-2-phenylacetamide] | 251 to 500 | 101 to 250 | –
14 | CCc1cc(F)cc(C(O)C(=O)Nc2ccc(-c3cn(C)c4nc(C)nc(N)c34)c(C)c2)c1 (centres unmarked) [Example 58, N-(4-(4-amino-2,7-dimethyl-7H-pyrrolo[2,3-d]pyrimidin-5-yl)-3-methylphenyl)-2-(3-ethyl-5-fluorophenyl)-2-hydroxyacetamide] | – | 1 to 25 | 51 to 100
15 | Cc1cc(NC(=O)Cc2cncc3ccccc23)ccc1-c1cn(C)c2ncnc(N)c12 [Example 155, N-(4-(4-amino-7-methyl-7H-pyrrolo[2,3-d]pyrimidin-5-yl)-3-methylphenyl)-2-(isoquinolin-4-yl)acetamide] | 101 to 250 | 26 to 50 | –
16 | Cc1nc(N)c2c(-c3ccc(NC(=O)C(O)c4cc(F)cc(F)c4)cc3F)cn(C)c2n1 (centres unmarked) [Example 83, N-(4-(4-amino-2,7-dimethyl-7H-pyrrolo[2,3-d]pyrimidin-5-yl)-3-fluorophenyl)-2-(3,5-difluorophenyl)-2-hydroxyacetamide] | – | 1 to 25 | 1 to 25
17 | Cc1nc(N)c2c(-c3ccc(NC(=O)C(O)c4ccccc4C)cc3F)cn(C)c2n1 (centres unmarked) [Example 71, N-(4-(4-amino-2,7-dimethyl-7H-pyrrolo[2,3-d]pyrimidin-5-yl)-3-fluorophenyl)-2-hydroxy-2-(o-tolyl)acetamide] | – | – | 2000 to 3000
18 | Cc1cc(NC(=O)N(C)c2ccccc2)ccc1-c1cn(C)c2ncnc(N)c12 [Example 171, 3-(4-(4-amino-7-methyl-7H-pyrrolo[2,3-d]pyrimidin-5-yl)-3-methylphenyl)-1-methyl-1-phenylurea] | 1000 to 2000 | 101 to 250 | –
19 | Cc1cc(NC(=O)Cc2ccccc2)ccc1-c1cn(C)c2ncnc(N)c12 [Example 137, N-(4-(4-amino-7-methyl-7H-pyrrolo[2,3-d]pyrimidin-5-yl)-3-methylphenyl)-2-phenylacetamide] | 26 to 50 | 1 to 25 | –
20 | Cc1cc(NC(=O)Cc2ccccc2F)ccc1-c1cn(C)c2ncnc(N)c12 [Example 160, N-(4-(4-amino-7-methyl-7H-pyrrolo[2,3-d]pyrimidin-5-yl)-3-methylphenyl)-2-(2-fluorophenyl)acetamide] | – | 1 to 25 | –
21 | Cc1cc(NC(=O)Cc2cccc(C(F)(F)F)c2)ccc1-c1cn(C)c2ncnc(N)c12 [Example 158, N-(4-(4-amino-7-methyl-7H-pyrrolo[2,3-d]pyrimidin-5-yl)-3-methylphenyl)-2-(3-(trifluoromethyl)phenyl)acetamide] | – | 1 to 25 | –
22 | Cc1cc(NC(=O)Cc2cccc(F)c2)ccc1-c1cn(C)c2ncnc(N)c12 [Example 161] | – | 26 to 50 | –
23 | Cc1nc(N)c2c(-c3ccc(NC(=O)C(O)c4ccccc4C)cc3F)cn(C)c2n1 (centres unmarked) [Example 72, N-(4-(4-amino-2,7-dimethyl-7H-pyrrolo[2,3-d]pyrimidin-5-yl)-3-fluorophenyl)-2-hydroxy-2-(o-tolyl)acetamide] | – | – | 26 to 50
